Measurements: patent US20080312192A1, “Diaryl Urea Derivatives in the Treatment of Protein Kinase Dependent Diseases” (priority 2003, published 2008)

Molecular target: T1, RET (Homo sapiens, UniProt P07949)
T1 construct: expresses the amino acid region 658-1072 (Swiss prot No. Q9BTB0); made in house; host or cells: Sf9 insect cells (baculovirus, vector pFB-GSTX3)
T1 sequence (P07949 658-1072 isoform P07949-2): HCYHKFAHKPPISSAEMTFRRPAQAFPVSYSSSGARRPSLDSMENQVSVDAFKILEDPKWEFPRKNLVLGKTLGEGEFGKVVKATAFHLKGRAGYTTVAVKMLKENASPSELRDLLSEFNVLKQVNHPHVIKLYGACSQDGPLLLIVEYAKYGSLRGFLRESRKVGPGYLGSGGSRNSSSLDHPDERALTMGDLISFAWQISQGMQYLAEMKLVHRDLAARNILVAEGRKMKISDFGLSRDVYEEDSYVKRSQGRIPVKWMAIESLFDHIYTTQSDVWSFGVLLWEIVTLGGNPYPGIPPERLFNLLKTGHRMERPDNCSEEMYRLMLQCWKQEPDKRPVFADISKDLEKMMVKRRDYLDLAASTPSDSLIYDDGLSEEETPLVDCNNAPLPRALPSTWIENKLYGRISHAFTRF
Test: RET kinase inhibition (33P incorporation into poly(Glu,Tyr), GST-wtRET or GST-RET-Men2B)
Format: biochemical
Description: RET kinase inhibition is determined as follows:
The coding sequence for the cytoplasmic domain of wtRET is amplified by PCR from a cDNA library using specific primers. RET-Men2B is generated through site-directed mutagenesis resulting in the M918T mutation. The amplified DNA fragments and the pFB-GSTX3 vector are made compatible for ligation by digestion with SalI and KpnI. Ligation of these DNA fragments results in the baculovirus donor plasmids […] and pFB-GX3-RET-Men2B, respectively.
Production of virus: The baculovirus donor plasmids containing the kinase domains are transfected into the DH10Bac cell line (GIBCO) and the transfected cells are plated on selective agar plates. Colonies without insertion of the fusion sequence into the viral genome (carried by the bacteria) are blue. Single, white colonies are picked and viral DNA (bacmid) is isolated from the bacteria by standard plasmid purification procedures. Sf9 cells or Sf21 cells (American Type Culture Collection) are then transfected in 25 cm^2 flasks with the viral DNA using Cellfectin reagent.
Protein expression in Sf9 cells: Virus-containing media is collected from the transfected cell culture and used for infection to increase its titer. Virus-containing media obtained after two rounds of infection is used for large-scale protein expression. For large-scale protein expression 100 cm^2 round tissue culture plates are seeded with 5×10^7 cells/plate and infected with 1 mL of virus-containing media (approximately 5 MOIs). After 3 days, the cells are scraped off the plate and centrifuged at 500 rpm for 5 minutes. Cell pellets from 10-20, 100 cm^2 plates are re-suspended in 50 mL of ice-cold lysis buffer (25 mM Tris-HCl, pH 7.5, 2 mM EDTA, 1% NP-40, 1 mM DTT, 1 mM PMSF). The cells are stirred on ice for 15 minutes and then centrifuged at 5,000 rpms for 20 minutes.
Purification of GST-tagged proteins: The centrifuged cell lysate is loaded onto a 2 mL glutathione-sepharose column (Pharmacia) and washed 3× with 10 mL of 25 mM Tris-HCl, pH 7.5, 2 mM EDTA, 1 mM DTT, 200 mM NaCl. The GST-tagged proteins are then eluted by 10 applications (1 mL each) of 25 mM Tris-HCl, pH 7.5, 10 mM reduced-glutathione, 100 mM NaCl, 1 mM DTT, 10% glycerol and stored at −70° C.
Measure of enzyme activity: Tyrosine protein kinase assays with either purified GST-wtRET or GST-RET-Men2B protein are carried out in a final volume of 30 μL containing 15 ng of either GST-RET or GST-RET-Men2B protein, 20 mM Tris-HCl, pH 7.5, 1 mM MnCl2, 10 mM MgCl2, 1 mM DTT, 3 μg/mL poly(Glu, Tyr) 4:1, 1% DMSO, 2.0 μM ATP (γ-[^33P]-ATP 0.1 μCi). The activity is assayed in the presence or absence of inhibitors, by measuring the incorporation of ^33P from [γ^33P] ATP into poly(Glu, Tyr) 4:1. […] Subsequently, 40 μL of the reaction mixture are transferred onto Immobilon-PVDF membrane (Millipore) previously soaked for 5 minutes with methanol, rinsed with water, then soaked for 5 minutes with 0.5% H3PO4 and mounted on vacuum manifold with disconnected vacuum source. After spotting all samples, vacuum is connected and each well rinsed with 200 μL 0.5% H3PO4. Membranes are removed and washed 4× on a shaker with 1.0% H3PO4, once with ethanol. Membranes are counted after drying at ambient temperature, mounting in Packard TopCount 96-well frame, and addition of 10 μl/well of Microscint™ (Packard). […] One unit of protein kinase activity is defined as 1 nmole of ^33P transferred from [γ^33P] ATP to the substrate protein/minute/mg of protein at 37° C.

Row | Structure (SMILES) | IC50 [µM]
1 | Nc1cc(Oc2ccc(NC(=O)Nc3cc(CN4CCC4)cc(C(F)(F)F)c3)cc2)ncn1 [Example 4, N-[4-(6-Amino-pyrimidin-4-yloxy)-phenyl]-N′-(3-azetidin-1-ylmethyl-5-trifluoromethyl-phenyl)-urea] | 0.083
2 | CC(C)(C)N1CCN(Cc2ccc(NC(=O)Nc3ccc(Oc4ccnc(N)n4)cc3)cc2C(F)(F)F)CC1 [Example 50] | 0.56
3 | CCN1CCN(Cc2ccc(NC(=O)Nc3ccc(Oc4ccnc(N)n4)cc3)cc2C(F)(F)F)CC1 [Example 52c, 1-[4-(2-Amino-pyrimidin-4-yloxy)-phenyl]-3-[4-(4-ethyl-piperazin-1-ylmethyl)-3-trifluoromethyl-phenyl]-urea] | 0.31
4 | CNc1nccc(Oc2ccc(NC(=O)Nc3ccc(N4CCN(C)CC4)c(C(F)(F)F)c3)cc2)n1 [Example 53d, 1-[4-(2-Methylamino-pyrimidin-4-yloxy)-phenyl]-3-[4-(4-methyl-piperazin-1-yl)-3-trifluoromethyl-phenyl]-urea] | 0.45
5 | Cc1ncn(Cc2ccc(NC(=O)Nc3ccc(Oc4ccnc(N)n4)cc3)cc2C(F)(F)F)c1C [Example 51a.1, 1-[4-(2-Amino-pyrimidin-4-yloxy)-phenyl]-3-(4-(4,5-dimethyl-imidazol-1-ylmethyl)-3-trifluoromethyl-phenyl]-urea] | 0.85

The next lines start with the values.

Row | IC50 [µM] | Structure (SMILES)
6 | 0.55 | CC(C)N1CCN(Cc2ccc(NC(=O)Nc3ccc(Oc4cc(N)ncn4)cc3)cc2C(F)(F)F)CC1 [Example 19, N-[4-(6-Amino-pyrimidin-4-yloxy)-phenyl]-N′-[4-(4-isopropylpiperazin-1-ylmethyl)-3-trifluoromethyl-phenyl]-urea]
7 | 0.18 | CN1CCN(Cc2ccc(NC(=O)Nc3ccc(Oc4ccnc(N)n4)cc3)cc2C(F)(F)F)CC1 [Example 52a, 1-[4-(2-amino-pyrimidin-4-yloxy)-phenyl]-3-[4-(4-methylpiperazin-1-ylmethyl)-3-trifluoromethyl-phenyl]-urea]
8 | 0.96 | CNc1cc(Oc2ccc(NC(=O)Nc3cc(CN4CCN(C(C)C)CC4)cc(C(F)(F)F)c3)cc2)ncn1 [Example 6, N-[4-(6-Methylamino-pyrimidin-4-yloxy)-phenyl]-N′-[3-(4-isopropylpiperazin-1-ylmethyl)-5-trifluoromethyl-phenyl]-urea]
9 | 0.45 | CNc1nccc(Oc2ccc(NC(=O)Nc3cc(N4CCN(C)CC4)cc(C(F)(F)F)c3)cc2)n1 [Example 53b, 1-[4-(2-Methylamino-pyrimidin-4-yloxy)-phenyl]-3-[3-(4-methyl-piperazin-1-yl)-5-trifluoromethyl-phenyl]-urea]
